The subject of data set [1] is freshly isolated human platelets. Description: Crossbeta-induced human platelet aggregation (aggregometer). It counts as cell-based. Here is the method: Ex vivo Human Blood Platelet Aggregation Assay
The influence of crossbeta structure binding chaperones on blood platelet aggregation induced by crossbeta structure or crossbeta structure comprising pathogens is tested with washed platelets or with platelet rich plasma in an aggregometric assay. Freshly drawn human aspirin free blood is mixed gently with citrate buffer to avoid coagulation. Blood is spinned for 15′ at 150*g at 20° C. and supernatant is collected; platelet rich plasma (PRP). Buffer with 2.5% trisodium citrate, 1.5% citric acid and 2% glucose, pH 6.5 is added to a final volume ratio of 1:10 (buffer-PRP). After spinning down the platelets upon centrifugation for 15′ at 330*g at 20° C., the pellet is resuspended in HEPES-Tyrode buffer pH 6.5. Prostacyclin is added to a final concentration of 10 ng/ml, and the solution is centrifuged for 15′ at 330*g at 20° C., with a soft brake. The pellet is resuspended in HEPES-Tyrode buffer pH 7.2 in a way that the final platelet number is adjusted to 200,000-250,000 platelets/μl. Platelets are kept at 37° C. for at least 30′, before use in the assays, to ensure that they are in the resting state. Platelets of approximately five donors are isolated separately.
For the aggregometric assays, platelet solution is added to a glass tube and prewarmed to 37° C. A stirring magnet is added and rotation is set to 900 rpm, and the apparatus (Whole-blood aggregometer, Chrono-log, Havertown, Pa., USA) is blanked. A final volume of 1/10 of the volume of the platelet suspension is added, containing the agonist of interest and/or the premixed antagonist of interest, prediluted in HEPES-Tyrode buffer pH 7.2. Aggregation is followed in time by measuring the absorbance of the solution, that is decrease in time upon platelet aggregation. As a positive control, either 10 μg/ml collagen (Kollagenreagens Horm, NYCOMED Pharma GmbH, Linz, Austria; lot 502940), or 5 μM of synthetic thrombin receptor activating compound TRAP. In tests to analyse the effect of chaperones, 10-100 μg/ml glycated haemoglobin or 10-100 μg/ml amyloid-β is used to induce platelet aggregation. Aggregation is recorded for at least 15′.
Platelet aggregation-studies with freshly isolated human platelets were performed as described above. For aggregation studies, platelets of four separate donors were used on subsequent days.

Data set [2] concerns human monocyte-derived dendritic cells. Description: FACS: binding of misfolded proteins and BiP to human monocyte-derived dendritic cells. In kind it is cell-based. The source says:
In vitro generation of peripheral blood human monocyte-derived dendritic cells, and analyses for binding of misfolded proteins and BiP
Human DCs are generated from non-proliferating precursors selected from peripheral blood mononuclear cells (PBMCs), essentially by published methods (Sallustro and Lanzavecchia [1994], J. Exp. Med. 179 1109-1118). Relative abundant presence of CD1a, CD32, CD36, CD40, CD54, CD86, HLA-DR and CD206 and relative low content of CD14 positive, CD16 positive, CD64 positive, CD80 positive, CD83 positive and CD163 positive cells serve as a quality measure for the immature DCs. After obtaining the immature DCs upon stimulation with GM-CSF and IL-4, direct binding of misfolded proteins and BiP to the DCs is assessed by incubating 200.000 cells (2*10^6 cells/ml) for 30 minutes at 4° C. under metabolic arrested state, with 1) PBS, 2) 58 μg/ml BiP (830 nM), 4) 250 μg/ml BSA-AGE (3.6 μM), 5) BSA-AGE+BiP, 6) 250 μg/ml oxLDL, 7) oxLDL+BiP, 8) mixture of BiP-binding peptides 6BB8-11, 13 (see Table 5), 125 μg/ml+BiP, and 8) 62.5 μg/ml Aβ16-22, 62.5 μg/ml Aβ25-35+BiP. After the incubation and careful washing of the cells, binding of BiP, BSA-AGE and oxLDL is assessed with FACS, using primary antibodies monoclonal anti-FLAG antibody, monoclonal anti-glycated human fibronectin antibody 4B5 and rabbit serum with anti-human apoliprotein B-100 antibody (Dade Behring, Newark, Del., USA), and the appropriate FITC- or PE-labeled secondary antibody. Mean fluorescence intensity (MFI) ratio's are determined by measuring background fluorescence.

In another data set the test system is HUVECs. The data set is described as follows: FACS: binding of misfolded proteins and BiP to HUVECs. In kind it is cell-based, human. Here is the method:
For these experiments HUVECs were isolated by trypsinization. After trypsinization cells were collected in RPMI 1640, containing P/S and 10% FCS and centrifuged. After centrifugation cells were resuspended in RPMI medium without FCS at a concentration of 1.250.000 cells/250 μl. Individual 4-ml tubes (polypropylene, Greiner), containing 250 μl cell suspensions were made. To each tube 75 μl of a sample, containing either, • a. buffer (PBS) only, or • b. 25 μl PBS+50 μl BiP (1.16 mg/ml), or • c. 50 μl buffer with 25 μl oxLDL (1 mg/ml), or • d. 74 μl buffer with 1 μl BSA-AGE (25 mg/ml), or • e. 24 μl PBS+1 μl BSA-AGE (25 mg/ml)+50 μl BiP (1.16 mg/ml), or • f. 25 μl oxLDL (1 mg/ml)+50 μl BiP (1.16 mg/ml), • g. 1.6 μl dIgIV-65 (20 mg/ml)+73.4 μl PBS • h. […]
was added. Subsequently, the cells were incubated with the sample for approximately 30 minutes at 4° C. Next, cells were pelleted by centrifugation and the supernatant was discarded. Cells were washed subsequently with FACS buffer (PBS/0.5% BSA/0.05% m/v NaN3) at 4° C. and resuspended in FACS-buffer at approximately 1*10^5 cells/100 μl for subsequent analysis. Cell death was determined by adding 3 μl 7-aminoactinomycin D (7AAD) solution (prepared according to standard procedures). Binding of sample BSA-AGE (see elsewhere in this application for preparation details) was determined with anti-AGE monoclonal antibody 4B5 (10 μg/ml) and, after washing, with goat anti-mouse PE secondary antibodies (Jackson Immunoresearch, West Grove, USA). Binding of BSA-AGE was also assessed using the intrinsic fluorescence of BSA-AGE in the PE channel. Binding of oxidized LDL (oxLDL, oxidized for 56% following incubation with FeSO4; specific enhancement of Thioflavin T fluorescence) was determined with rabbit serum with anti-ApoB100 polyclonal antibodies at a concentration of 160 μg/ml and, after washing the cells, with FITC-labelled goat anti-rabbit antibodies (1:200, Jackson). Binding of dIgIV-65 was assessed by using anti-Human IgG antibody. BiP binding was determined using the earlier mentioned anti-FLAG antibody (M2, Sigma-Aldrich).
On the technique in general: In flow cytometry, cells or beads pass a laser one at a time.

Data set [3] has as its system freshly isolated human platelets. The data set is described as follows: Crossbeta-induced human platelet aggregation (aggregometer). In kind it is cell-based. To be noted: 8 μM TRAP.

In the case of “BiP: Recombinant human HSP70 family chaperone BiP with C-terminal linker, FLAG-tag and His-tag, expressed in HEK 293E cells”, the “Platelet aggregation by protein alone, without activator” value in data set [1] is listed as “did not induce platelet aggregation”. Also, the “Misfolded protein induced platelet aggregation” value in data set [1] (activators Aβ42t=0, HbAGE, BSA-AGE, four donors) is on record as “potently inhibited”. Besides, in data set [1] (donor a), the “Platelet aggregation induced by amyloid-β1-42” value is reported as “strongly inhibited” and the “Platelet aggregation induced by crossbeta BSA-AGE” value was “strongly inhibited”. Also, the “Platelet aggregation induced by Aβ1-42” value in data set [1] (donor b, Aβ42t=0 26.7 μg/ml) is on record as “inhibited”. Besides, the “Platelet aggregation induced by crossbeta BSA-AGE” value in data set [1] (donor b, BSA-AGE 33.3 μg/ml) is reported as “strongly inhibited”. In data set [1] (donor c), the “Aβ42 induced platelet activation” value is “abolish”, the “BSA-AGE induced platelet aggregation” value is on record as “inhibit” and the “HbAGE induced platelet aggregation” value was “inhibited”. The “HbAGE induced platelet aggregation” value in data set [1] (donor d, BiP 58 μg/ml, sRAGE 37.4 μg/ml, HbAGE 80 μg/ml) was “inhibits”. For the same substance, the “Binding of BiP to DCs (MFI ratio)” value in data set [2] (BiP alone, 58 μg/ml, 30 minutes at 4° C.) came out at 1.4. In addition, in data set [2] (FACS, human dendritic cells, detection of BiP, signal divided by background signal), the “Binding to DCs (MFI ratio), BiP” value is reported as 1.4. For the same substance, the “Binding of BiP to HUVECs (MFI ratio)” value with HUVECs (BiP alone) is listed as 1.4. The “Binding of BiP to ECs” value in the data set with HUVECs (co-incubated with dIgIV-86) was “neither BiP did bind”. For the same substance, the TRAP-induced platelet aggregation result in data set [3] is on record as “unaffected”.

These data come from patent publication US20100015126A1, “Methods of Binding of Cross-Beta Structures By Chaperones” (priority 2006, published 2010).
